CCC[C@H](N)C(=O)O
solubility (mole fraction)
Settings | 298.15 K | 303.15 K | 308.15 K | 313.15 K | 318.15 K | 323.15 K
in acetone | 0.000515 | 0.000664 | 0.000828 | 0.00106 | 0.00135 | 0.00161
in acetonitrile | 5.93e-05 | 6.88e-05 | 7.54e-05 | 8.02e-05 | 8.53e-05 | 9.69e-05
in ethanol | 0.000171 | 0.000186 | 0.000201 | 0.000227 | 0.000244 | 0.000283
in ethyl acetate | 0.000253 | 0.000301 | 0.000349 | 0.000449 | 0.0005 | 0.00056
in isopentanol | 0.000726 | 0.000875 | 0.00103 | 0.00122 | 0.00151 | 0.00183
in isopropanol | 0.00119 | 0.0015 | 0.00173 | 0.00192 | 0.00215 | 0.00249
in methanol | 0.00104 | 0.00109 | 0.00113 | 0.0012 | 0.00126 | 0.00129
in methyl acetate | 7.37e-05 | 9.03e-05 | 0.00012 | 0.00015 | 0.000176 | 0.000216
in n-butanol | 0.000962 | 0.00122 | 0.0014 | 0.00157 | 0.00175 | 0.0019
in n-pentanol | 0.000508 | 0.000567 | 0.000639 | 0.000744 | 0.000818 | 0.000872
in n-propanol | 0.000859 | 0.00115 | 0.0015 | 0.00189 | 0.00231 | 0.00278
in water | 0.0135 | 0.0136 | 0.0137 | 0.0138 | 0.0139 | 0.0141

— BigSolDB 2.1
